Source: patent publication US9593146B2, “CD44v6-derived peptides for treating metastasizing cancer” (AMCURE GMBH, priority 2012, dated 2017)

Legend:
L3.6pl cells = assay: Human orthotopic model of pancreatic cancer, L3.6pl cells in nude mice; assay type: in vivo; settings: 20 μg i.p. three times per week for three weeks, start 7 days after implantation
Description: In the case of the human orthotopic model, L3.6pl pancreatic carcinoma cells (passage 24-26) were suspended in Hank's balanced salt solution (Invitrogen, Karlsruhe, Germany) after trypsinization. The cells were injected orthotopically in the pancreas of male nude mice as described (Bruns C J et al. (1999) Neoplasia 1(1):50-62). Two groups of 15 mice each were injected i.p. 7 days later with either the human v6 peptide respectively rat control peptide (20 μg). For all experiments described and depicted herein either the rat 14mer control peptide or the human 14mer peptide were used. All experiments were then repeated with the rat 5mer control peptide or the human 5mer peptide (N-R-W-H-E, SEQ ID NO: 2). […] The injection was repeated three times per week for 21 days. Two days after the last treatment the animals were killed. […]
A comparison of different CD44v6 peptide derivatives was performed in animals bearing a orthotopic L3.6pl tumor. 10 groups of 5 animals each received a dose of 20 μg peptide per injection three times per week for 3 weeks with the compounds listed in Table 4. Three weeks after starting the treatment the animals were sacrificed and analyzed for macroscopic metastases and tumor volume.

BSp73ASs6 cells [1] = assay: Apoptosis in established lung metastases (cleaved Caspase-3, cleaved Caspase-8), BSp73ASs6 rat model; assay type: in vivo; settings: injection every second day
Description: 7 μm thick paraffin sections were deparaffinized and rehydrated. For P-Met staining antigen unmasking was achieved by boiling the slides in 1 mM EDTA pH 8.0 followed by incubation for 15 minutes at a sub-boiling temperature, for CD31 staining the sections were treated with Proteinase K (8 μg/ml) for 10 min at 37° C. For immunofluorescence staining of P-Met, unspecific binding was blocked with 5% goat serum (DAKO, Glostrup, Denmark) (diluted in 1×PBS/0.3% Triton X-100) for 60 minutes. In the case of immunohistochemistry, endogenous peroxidases were at first blocked with 3% H2O2 in PBS followed by incubation with biotin blocking system (Dako, Glostrup, Denmark) and then unspecific binding was inhibited by incubation with 5% FCS in PBS. The sections were incubated with the P-Met antibody (D26, dilution 1:50 in 1×PBS/1% BSA/0.3% Triton X-100), Met antibody (C-28, dilution 1:50), GFP antibody (sc-101525, dilution 1:50) or CD31 antibody (5 μg/ml) over night or VFF18 (5 μg/ml) o/n at 4° C. After washing in PBS the sections were incubated with Alexa Fluor R 546 goat anti-rabbit (in case of immunofluorescence P-Met and Met staining, dilution 1:500) or a biotinylated secondary antibody (for immunohistochemical stainings rabbit anti-rat antibody for VFF18 and CD31, goat anti-rabbit for P-Met, cleaved Caspase-3 and cleaved Caspase-8 and rabbit anti-mouse for GFP, dilution 1:500) for 45 minutes. For DAB (3,3′-diaminobenzidine) staining the sections were treated with a streptavidin-peroxidase conjugate (Dako, Glostrup, Denmark) and developed with DAB substrate system (3,3′-diaminobenzidine; Biozol, Eching, Germany). For immunofluorescence DAPI was used for nuclear staining.
One hypothesis for the disappearance of metastases is that the peptides induce apoptosis of CD44v6-expressing metastatic cells in the secondary organs. In order to test this hypothesis, the experiment described above using the BSp73ASs6 cells was repeated. The cells were injected subcutaneously in syngeneic rats and the tumor was allowed to develop for three weeks. After that time the animals were separated in two groups of 10 animals that were injected either with the specific rat CD44v6 peptide or with the control peptide (mouse) every second day. One day following each injection of the peptide, the lungs of one animal were removed and apoptosis was measured using an antibody that detects the cleaved form of Caspase 3. […] Twelve days after injection of the CD44v6 peptide, less apoptosis was observed. […] From these experiments, it is concluded that the CD44v6 peptide induces apoptosis of metastatic cells.

BSp73ASs6 cells [2] = assay: Rat syngeneic model, subcutaneous BSp73ASs6 tumor, metastasis formation; assay type: in vivo
Description: In the case of the rat syngeneic model, 1×10^6 pancreatic cells (BSp73AS and its transfectants) were subcutaneously injected into the right posterior flank of the animals. Tumors developed for four weeks. During this time period animals injected with BSp73ASs6 cells expressing Met-shRNA or control-shRNA received doxycycline in the drinking water. At the end of the experiment, primary tumors were isolated. Lungs and axillary lymph nodes were analyzed. The tissues were incubated for 24 h in a zinc-fixative (0.5 g calcium acetate, 5.0 g zinc acetate, 5.0 g zinc chloride, in 1 L 0.1 M Tris pH 7.4) and embedded in paraffin for further analysis. In case of peptide or antibody treatment tumors developed for one week before the first treatment. Where indicated, animals received 200 μg of peptide or antibody per injection three times per week for four weeks. Tumor growth was monitored weekly using a caliper. Animals were killed at day 28 or 30 after start of the treatment.
For histo-morphological analysis paraffin-embedded sections of lungs were stained with hematoxylin and eosin and periodic acid-Schiff (H&E or PAS). Serial sections of the whole tissue blocks were examined by analyzing slices every 20 μm; in each slice, the presence and the extension of the metastatic deposit was assessed, according to the procedure routinely used by pathologists to evaluate the presence of micro-metastases.

Met and ERK [3] = assay: HGF induced activation of Met and ERK in L3.6pl cells (Western blot); assay type: cell-based, human; settings: L3.6pl cells, peptide prior to induction with 10 ng/ml HGF
Description: (§1) Serum-starved cells (24 hours) were induced with the growth factor HGF (10 ng/mL) at 37° C. for 5 minutes. Where indicated, the cells were treated with peptides (100 ng/ml) prior to induction at 37° C. for 10 minutes (100 ng/mL CD44v6 peptide or control peptide). Following the induction with HGF, cells were washed with ice-cold phosphate-buffered saline (PBS). To detect activated Met and Erk, cells were lysed in sodium dodecyl sulfate (SDS)-sample buffer containing 100 mM dithiothreitol (DTT), boiled and subjected to western blot analysis using antibodies against phospho-Met and ERK. The loading controls were performed on the same blot after stripping (62.5 mM Tris, pH 6.8, 2% SDS, 0.8% DTT) by probing with the Met respectively ERK antibody. Blots were stained using the enhanced chemiluminescence system (Thermo Fisher Scientific, Schwerte, Germany). Bands in western blot analysis were quantified with the program Image J (National Institutes of Health).

4T1 cells = assay: Syngeneic orthotopic 4T1 mammary carcinoma model in BALB/c mice; assay type: in vivo; settings: 20 μg i.p. 3 times per week for two weeks
Description: FIG. 26: Treatment with the v6 14mer reduces growth of the primary tumor and macroscopic metastases formation in the lung. 1×10^6 murine 4T1 cells per mouse were diluted in 50 μl RPMI plus 50 μl Matrigel and injected into the 6th mammary fat pad of 10 female BALB/c mice. One week after the injection, the mice were either injected intraperitoneally with 20 μg of the murine v6 14mer dissolved in 100 μl PBS or with 20 μg of control peptide (rat v6 14mer) dissolved in 100 μl PBS. The injection was performed 3 times per week for two weeks. After 2 weeks the mice were sacrificed and the primary tumors and the lungs were extracted. A: Overall reduction of the tumor volume in the v6 peptide treated group. B: Immunofluorescent staining for the endothelial marker CD34 to monitor vascularization of the primary tumor. Graphic representation of the reduction of the total vessel area. C: The v6 peptides led to a reduction in macroscopic lung metastasis. The black arrows mark examples for metastases. The scale bar corresponds to a size of 1 cm. Statistical evaluation of the average number of lung metastases. Significance was calculated using Student's t test: p*<0.01; **p<0.005. Each group consisted of 5 animals.
The effect of the CD44v6 14mer was tested in a syngeneic mouse model by orthotopic injection of the murine mammary carcinoma cells 4T1. 4T1 cells were originally derived from a spontaneously arising BALB/c mammary tumor. When introduced orthotopically, 4T1 cells grow rapidly at the primary site and form metastases in the lung and the lymph nodes within a period of 3-6 weeks. The tumor growth and metastatic spreading of 4T1 cells in BALB/c mice very closely mimics human breast cancer stage IV.
The 4T1 cells were injected orthotopically into the 6th mammary fat pad. Two groups of 5 animals each with the implanted tumor cells were then used for the experiment. One group was treated with the v6 14mer peptide, one with a control (rat) peptide. The injection of the peptide was performed 3 times per week and planned for three to four weeks but had to be stopped after two weeks as the control group suffered from large tumors.

BSp73ASs6 cells [4] = assay: Staining of fixed BSp73ASs6 cells with DY681-labeled peptides; assay type: cell-based, rat; settings: DY681-labeled peptide for one hour
Description: ASs6 or L3.6pl cells were seeded at 5,000 cells/well of a Lab-TekR Chamber Slide™ (Nunc, Napierville, Ill., USA). On the following day the cells were washed with cold PBS and fixed with 4% Formalin for 30 min at RT. Unspecific binding was blocked with 1% BSA in PBS for 1 hour at RT. The cells were incubated for 1 hour with the DY681-labeled peptides. After three washing steps with PBS the cover slips were mounted with Fluorescence Mounting Medium (Dako, Glostrup, Denmark) and the immunofluorescence was measured by a laser scanning confocal microscope Leica TCS2 SP2 (Exton, Pa., USA) and processed using Leica confocal software. A 20× objective was used for imaging.

Met and ERK [5] = assay: HGF induced activation of Met and Erk in BSp73ASs6 cells (Western blot); assay type: cell-based, rat; settings: BSp73ASs6 cells induced with HGF in the presence of the labeled peptide (FIG. 3A right)
Description: as §1
Rat pancreatic cancer cells BSp73ASs6 (also designated Ass6) were incubated for 10 min at 37° C. with either ctrl-peptides (SEQ ID No.: 15), non-pegylated v6-peptides (SEQ ID No.: 11) and increasing concentrations of the pegylated peptides, namely PEG-rat control peptide and PEG-rat CD44v6 peptide, before induction with HGF (10 ng/ml; 5 min at 37° C.).
Activation of ERK and Met was determined by standard SDS and Western Blotting techniques using a phospho-Met and phospho-Erk specific antibody (phospho-Met clone D16 cell signaling, phospho-Erk p42/44 cell signaling)
ASs6 cells, serum starved for 24 h, were induced with HGF (10 ng/ml) at 37° C. for 5 min. Where indicated, the cells were treated with PEGylated or non-PEGylated peptides before induction at 37° C. for 10 min (150 nM). Cells were washed with phosphate-buffered saline (PBS) and lysed in boiling sodium dodecyl sulfate (SDS)-sample buffer containing 100 mM dithiothreitol (DTT). Subsequently, lysates were subjected to Western blot analysis using antibodies against phosphorylated Mek and Erk (Cell signaling). The Mek and Erk loading control were performed on the same blot, stripped (62.5 mM Tris pH 6.8, 2% SDS, 0.8% DTT) and probed with the Mek and Erk antibodies. Blots were stained using the enhanced chemiluminescence system (Thermo Fisher Scientific).

BSp73ASs6 tumors = settings: rat
Description: In vivo imaging of the subcutaneously grown BSp73ASs6 tumors in BD10 or BDX rats was performed using the near infrared fluorescence (NIRF)-imaging system Optix MX2 (ART, Montreal, Canada) as described earlier (Napp et al., Int J Cancer (2010), 127:1958-1974). To avoid autofluorescence of fur, rats were shaved around the tumor prior to imaging. Subsequently, animals were anesthetized using 2% isoflurane and gently fixed on the devices' heated plate for the entire time of data acquisition. To reduce fluorescence background, rats were fed with chlorophyll-reduced food (Provimi Kliba AG, Kaiseraugst, Switzerland) for one week prior NIRF imaging. All in vivo analyses were preceded by native scans of animals without any injection of the fluorescent probe. […] The rat 11mer had the sequence [sequence] (SEQ ID No.: 12), the mouse 11mer had the sequence [sequence] (SEQ ID No.: 13) and the human 11mer had the sequence [sequence] (SEQ ID No.: 14). All peptides were labeled with the fluorescent dye DY681. Data were acquired at the indicated time after injection of the peptides. For ex vivo monitoring animals were sacrificed after 24 hrs after peptide injection and tumor and organs of interest were scanned ex vivo using Optix MX2.
DY681 fluorescence was measured using excitation at 670 nm in combination with a 700 nm long-pass emission filter. […] Data sets were analyzed with OptiView (ART).

L3.6pl tumors = assay: In vivo / ex vivo imaging (Pearl Imager) of mice with L3.6pl tumors; settings: 20 μg i.v., 24 h after injection
Description: In vivo imaging of the mice with the L3.6pl tumors was performed using the Pearl™ Imager (LI-COR Biosciences, Bad Homburg, Germany). The system uses two lasers (685 and 785 nm) for excitation and a charge-coupled device detector for signal detection. The laser excitation enables a deep tissue penetration. With the near-infrared detection a high sensitivity due to the reduced tissue auto-fluorescence is achieved. In order to standardize the images we made use of the Pearl Cam Software. The animals were fed with chlorophyll-reduced food to reduce the fluorescence background one week before imaging (Regime 210, safe-diets, Augy, France). Prior to imaging the mice were anesthetized with 2.0% isoflurane. Animals were placed on the heated plate of the imager and continuous delivery of isoflurane was achieved through a nose cone in the imaging drawer. Images were captured at white light, 700 and 800 nm. Animals were imaged prior to i.v. peptide injection and 24 h after injection with either DY681-labeled human v6 peptide or DY681-labeled rat v6 peptide as control. Immediately after each imaging session animals were killed, tumor, liver and spleen isolated and scanned ex vivo at white light, 700 and 800 nm.

| Sequence | metastasis formation (liver) (L3.6pl cells) | outgrowth of the primary tumor in the pancreas (L3.6pl cells) | lung metastasis at day twenty-two (BSp73ASs6 cells [1]) | time of maximum of apoptosis (BSp73ASs6 cells [1]) | first detection of apoptotic cells (cleaved Caspase 3) in tumor areas of the lungs (BSp73ASs6 cells [1]; start three weeks after tumor cell injection) | metastasis (axillary lymph nodes, lungs) (BSp73ASs6 cells [2]; 200 μg per injection, intra-tumoral or intravenously three times a week, start after one week of tumor growth) | outgrowth of primary tumors (BSp73ASs6 cells [2]; same treatment, 28 days) | metastasis and micro-metastasis in lung sections (PAS and H&E staining) (BSp73ASs6 cells [2]; same treatment, histological analysis) | Phosphorylation of Met and ERK (Met and ERK [3]) | average number of metastases (4T1 cells; 5 animals) | macroscopic lung metastases per animal (4T1 cells; 5 animals per group) | binding to BSp73ASs6 cells in tissue culture (BSp73ASs6 cells [4]) | inhibition of Met activation by DY681 labeled peptide (Met and ERK [5]) | fluorescence in excised tumors and lungs ex vivo (BSp73ASs6 tumors) | fluorescence / accumulation in the orthotopic L3.6pl tumor in vivo (L3.6pl tumors) |
| --- | --- | --- | --- | --- | --- | --- | --- | --- | --- | --- | --- | --- | --- | --- | --- |
| KEKWFENEWQGKNP [rat 14mer, rat CD44v6 14mer; control peptide in human and mouse models] | neither any influence on metastasis formation | nor on growth of the primary tumor | no metastasis could be detected anymore | eight days after the first injection | as early as three days after the first injection | completely inhibited metastasis | not influenced by either treatment | neither metastasis nor micro-metastasis could be detected | had no influence on receptor activation and signal transduction | 6 metastases per lung | all mice treated with the control peptide developed metastases |  |  |  |  |
| WFQNGWQGKNP [mv6 pep Dy681, mouse v6 11mer labeled with DY681, control, reference compound] |  |  |  |  |  |  |  |  |  |  |  | not the DY681-labeled mouse v6 peptide bound to BSp73ASs6 cells | not the mouse peptide inhibited Met activation |  |  |
| WFENEWQGKNP [rv6 pep Dy681, rat v6 11mer labeled with DY681] |  |  |  |  |  |  |  |  |  |  |  | bound to BSp73ASs6 cells in tissue culture | inhibited Met activation | could only be detected in tumors and in specific areas of the lungs | No fluorescence was detected |
